According to patent US20260176266A1, “PIPERIDINOPYRIMIDINE DERIVATIVE, PREPARATION METHOD THEREFOR AND USE THEREOF IN MEDICINE” (TUOJIE BIOTECH (SHANGHAI) CO., LTD., priority 2022, published 2026):

Key:
CDK2/CyclinE1 = CDK2/CyclinE1 (Homo sapiens, UniProt P24941); assay: ADP-Glo kinase assay, CDK2; assay type: biochemical; details: 1 nM CDK2/CyclinE1, 15 μM ATP (Km), Histone H1, 60 min; read-out: inhibitory activity (IC50, nM) CDK2
Protocol: (§1) The ADP-Glo kinase assay was used for testing the activity of CDKs. The compounds were diluted in 384-well plates using Echo. The starting concentration was 10 μM and was 3-fold diluted to obtain 10 concentration points, each tested in duplicate, and the final concentration of DMSO in the assay system was 1%. CDK solutions (the final concentrations were 16.5 nM CDK1/CyclinB, 1 nM CDK2/CyclinE1, 16.3 nM CDK4/CyclinD1, 11.5 nM CDK5/p25, 15.7 nM CDK6/CyclinD3, 80 nM CDK7/Cyclin H/MAT1, 15.3 nM CDK9/Cyclin T1, and 150 nM CDK12/CyclinK) prepared in assay buffer were added at 2.5 μL, and the enzymes and compounds were pre-incubated at room temperature for 10 min. ATP (the concentration was Km) & substrate solutions (20 μM ATP & 0.1 mg/mL Histone H1 Protein for CDK1/CyclinB, 15 μM ATP & 0.1 mg/mL Histone H1 Protein for CDK2/CyclinE1, 200 μM ATP & 0.2 mg/mL DYRKtide peptide for CDK4/CyclinD1, 10 μM ATP & 0.1 mg/mL Histone H1 Protein for CDK5/p25, 200 μM ATP & 0.1 mg/mL Histone H1 Protein for CDK6/CyclinD3, 70 μM ATP & 0.2 mg/mL MBP for CDK7/Cyclin H/MAT1, 60 μM ATP & 0.2 mg/mL PDKtide for CDK9/Cyclin T1, and 20 μM ATP & 80 μM pS7-CTD peptide for CDK12/CyclinK) prepared in assay buffer were added at 2.5 μL. After thorough mixing, the plates were incubated at room temperature, with CDK1/4/9/12/13 incubated for 120 min and CDK2/5/6/7 incubated for 60 min. ADP-Glo reagents were added at 4 μL, and the plates were incubated at room temperature for 40 min. Kinase detection reagents were added at 8 μL, and the plates were incubated at room temperature for 40 min. Readings were taken using an Envision multimode microplate reader. Data were processed using GraphPad Prism 8, and IC50 was calculated.
(§2) [formula] • X: the logarithm of the compound concentration; Y: % inhibition.

CDK7/Cyclin H/MAT1 = CDK7/Cyclin H/MAT1 (Homo sapiens, UniProt P50613); assay: ADP-Glo kinase assay, CDK7; assay type: biochemical; details: 80 nM CDK7/Cyclin H/MAT1, 70 μM ATP (Km), MBP, 60 min; read-out: inhibitory activity (IC50, nM) CDK7
Protocol: as §1, §2

[1] = Human liver microsome metabolism study; assay type: in vitro ADME; details: human liver microsomes
Protocol: 222.5 μL of human liver microsomes (protein concentration: 1 mg/mL) and 25 μL of NADPH ([…]) were added to an incubation plate and pre-heated for 10 min. 2.5 μL of control compound and test compound (100 μM) were added.
[…] The reaction was stopped by adding 5 volumes of cold acetonitrile containing IS (100 nM alprazolam, 200 nM caffeine, and 100 nM tolbutamide). The reaction mixture was centrifuged, and 100 μL of the supernatant was collected and mixed with 100 μL of ultrapure H2O. Then the mixture was analyzed by LC-MS/MS.
The slope value k was determined by linear regression of the natural logarithm of a curve of the parent drug remaining percentage versus incubation time.
The in-vitro half-life (in-vitro T1/2) was determined by the slope value:
Using the following equation (the average of repeated measurements), the in-vitro T½ (min) was converted to the in-vitro intrinsic clearance rate (in-vitro CLint, in μL/min/mg protein): […]

Sequence of CDK7/Cyclin H/MAT1 (P50613 whole entry, species assumed): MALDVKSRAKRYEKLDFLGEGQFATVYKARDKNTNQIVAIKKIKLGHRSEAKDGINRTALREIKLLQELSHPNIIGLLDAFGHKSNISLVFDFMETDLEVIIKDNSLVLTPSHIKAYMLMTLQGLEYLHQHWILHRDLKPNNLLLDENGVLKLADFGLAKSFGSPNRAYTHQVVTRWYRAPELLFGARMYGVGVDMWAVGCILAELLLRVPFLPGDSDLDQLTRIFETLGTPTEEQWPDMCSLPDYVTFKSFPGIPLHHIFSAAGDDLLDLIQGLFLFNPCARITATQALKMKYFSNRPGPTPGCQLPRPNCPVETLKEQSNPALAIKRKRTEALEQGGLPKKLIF
Sequence of CDK7/Cyclin H/MAT1 (P51946 whole entry partner, species assumed): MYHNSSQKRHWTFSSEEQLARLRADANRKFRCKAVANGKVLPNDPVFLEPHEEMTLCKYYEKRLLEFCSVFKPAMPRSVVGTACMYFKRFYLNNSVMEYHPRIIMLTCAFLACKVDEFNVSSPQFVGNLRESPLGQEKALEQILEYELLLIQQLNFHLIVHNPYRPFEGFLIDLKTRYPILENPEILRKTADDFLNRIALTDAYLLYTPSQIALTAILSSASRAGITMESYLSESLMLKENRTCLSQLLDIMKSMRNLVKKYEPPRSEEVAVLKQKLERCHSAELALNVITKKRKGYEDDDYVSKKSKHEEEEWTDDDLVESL
Sequence of CDK7/Cyclin H/MAT1 (P51948 whole entry partner, species assumed): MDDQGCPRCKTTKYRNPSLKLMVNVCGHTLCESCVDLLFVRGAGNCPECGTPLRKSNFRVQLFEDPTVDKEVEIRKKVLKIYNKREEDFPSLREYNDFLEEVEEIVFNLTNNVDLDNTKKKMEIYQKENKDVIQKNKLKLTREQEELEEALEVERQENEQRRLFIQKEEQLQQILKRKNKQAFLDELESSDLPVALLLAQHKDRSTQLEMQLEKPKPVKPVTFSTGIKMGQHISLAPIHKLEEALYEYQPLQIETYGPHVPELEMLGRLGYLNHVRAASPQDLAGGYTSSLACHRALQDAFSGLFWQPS

IC50 (CDK2/CyclinE1): 933 nM
IC50 (CDK7/Cyclin H/MAT1): 25.2 nM
half-life at 1 μM ([1]; in-vitro half-life): 1.22 h
microsomal CLint at 1 μM ([1]; in-vitro intrinsic clearance): 19 µL/min/mg
Remaining amount % at 0.5 min ([1]; incubation 0.5 min): 100.00%
Remaining amount % at 5 min ([1]; incubation 5 min): 91.32%
Remaining amount % at 15 min ([1]; incubation 15 min): 78.60%
Remaining amount % at 30 min ([1]; incubation 30 min): 68.95%
Remaining amount % at 60 min ([1]; incubation 60 min): 55.59%
SMILES: C[C@@H]1Cc2cnc(NCc3ccn(C)n3)nc2CN1C(=O)[C@H]1CCN(C)C[C@@H]1c1ccccc1 [Janssen-01, reference compound]
